# Measured values as given in ChEMBL document CHEMBL1128956, “Irreversible inhibitions of serine proteases by peptidyl allylic halide derivatives” (Bioorg Med Chem Lett, 1996).
# Assays:
# [1] = target: Chymotrypsinogen A (Bos taurus) (UniProt P00766); assay: Compound was tested for inhibitory activity towards alpha-chymotrypsin expressed as second order rate constant values
# [2] = target: Chymotrypsinogen A (Bos taurus) (UniProt P00766); assay: Compound was tested for inhibitory activity against alpha-chymotrypsin
# [3] = target: Chymotrypsinogen A (Bos taurus) (UniProt P00766); assay: Compound was tested for inhibitory activity towards alpha-chymotrypsin expressed as second order rate constant values; No inactivation
# [4] = target: T1, Chymotrypsin-like elastase family member 2A (Sus scrofa) (UniProt P08419); assay: Compound was tested for inhibitory activity toward porcine pancreatic elastase.
# T1 sequence (whole entry): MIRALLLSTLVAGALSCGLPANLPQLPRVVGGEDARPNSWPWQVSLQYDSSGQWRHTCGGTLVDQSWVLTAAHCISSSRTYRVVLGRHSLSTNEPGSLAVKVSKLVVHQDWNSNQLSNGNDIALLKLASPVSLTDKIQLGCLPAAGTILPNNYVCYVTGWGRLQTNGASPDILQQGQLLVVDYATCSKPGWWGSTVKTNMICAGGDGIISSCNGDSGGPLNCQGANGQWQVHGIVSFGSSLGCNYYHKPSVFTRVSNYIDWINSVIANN
# [5] = target: Chymotrypsinogen A (Bos taurus) (UniProt P00766); assay: Compound was tested for inhibitory activity against alpha-chymotrypsin
# [6] = target: Chymotrypsinogen A (Bos taurus) (UniProt P00766); assay: Compound was tested for inhibitory activity towards alpha-chymotrypsin expressed as second order rate constant values
# [7] = target: T1, Chymotrypsin-like elastase family member 2A (Sus scrofa); assay: Compound was tested for inhibitory activity toward porcine pancreatic elastase expressed as second order rate constant values: No inactivation
SMILES,k obs / concentration [1] [M⁻¹ s⁻¹],Concentration [2] [mM],k obs / concentration [3],Concentration [4] [µM],Concentration [5] [µM],k obs / concentration [6] [M⁻¹ s⁻¹],k obs / concentration [7]
CC(=O)N[C@H](/C=C/CCl)Cc1ccccc1,0.8,0.476,,,,,
O=C(CNC(=O)OCc1ccccc1)NCC(=O)N[C@H](/C=C/CF)Cc1ccccc1,,4.4,No inactivation,,,,
O=C(CNC(=O)OCc1ccccc1)NCC(=O)N[C@H](/C=C/CCl)Cc1ccccc1,,,,97,17,61,No inactivation
O=C(CNC(=O)OCc1ccccc1)N[C@H](/C=C/CCl)Cc1ccccc1,,,,600,28,12,No inactivation
CC(=O)N[C@H](/C=C/CBr)Cc1ccccc1,,,,101,101,14,No inactivation
O=C(CNC(=O)OCc1ccccc1)NCC(=O)N[C@H](/C=C/CBr)Cc1ccccc1,,,,15,7,1240,No inactivation

# More lines, now with the values ahead:
k obs / concentration [1] [M⁻¹ s⁻¹],Concentration [2] [mM],k obs / concentration [3],Concentration [4] [µM],Concentration [5] [µM],k obs / concentration [6] [M⁻¹ s⁻¹],k obs / concentration [7],SMILES
,,,25,25,215,No inactivation,O=C(CNC(=O)OCc1ccccc1)N[C@H](/C=C/CBr)Cc1ccccc1
,1.05,No inactivation,,,,,O=C(CNC(=O)OCc1ccccc1)N[C@H](/C=C/CF)Cc1ccccc1
,13.5,No inactivation,,,,,CC(=O)N[C@H](/C=C/CF)Cc1ccccc1
